Reference: ChEMBL document CHEMBL5104126, “Discovery of 2,3-dihydro-1H-pyrrolo[3,4-b]quinolin-1-one derivatives as possible antileishmanial agents” (RSC Med Chem, 2022)
Converted amounts (≈) assume the structure as drawn. The source made the active and inactive calls. The rule behind the calls is not given here.

Legend:
Leishmania donovani [1] = assay: Induction of mitochondrial membrane potential loss in Leishmania donovani MHOM/IN/80/Dd8 promastigotes assessed as apoptotic cells at 50 uM incubated for 48 hrs by JC-1 dye staining based flow cytometry; type: functional
Leishmania donovani [2] = assay: Antileishmanial activity against Leishmania donovani MHOM/IN/80/Dd8 amastigotes harboring luciferase gene infected in mouse J774 cells assessed as inhibition of parasite viability at 25 uM incubated for 72 hrs by Steady-Glo reagent based luciferase assay relative to control; type: functional; conditions: MHOM/IN/80/Dd8, J774
Leishmania donovani [3] = assay: Antileishmanial activity against Leishmania donovani MHOM/IN/80/Dd8 promastigotes harboring luciferase gene infected in mouse J774 cells assessed as inhibition of parasite viability at 25 uM incubated for 72 hrs by Steady-Glo reagent based luciferase assay relative to control; type: functional; conditions: MHOM/IN/80/Dd8, J774
[4] = Metabolic stability in mouse liver microsomes assessed as half life at 10 ug/ml incubated for 1 hrs in presence of NADPH by UPLC analysis; type: ADME, Microsome; conditions: dose 10 µg/ml
Leishmania donovani [5] = assay: Antileishmanial activity against Leishmania donovani MHOM/IN/80/Dd8 promastigotes infected in Balb/c mouse assessed as inhibition organ parasite burden in spleen at 12.5 mg/kg, ip for 7 days by Giemsa staining based microscopy; type: functional; conditions: MHOM/IN/80/Dd8, 168 h, time 7 day
[6] = Metabolic stability in mouse liver microsomes assessed as elimination rate constant at 10 ug/ml incubated for 1 hrs in presence of NADPH by UPLC analysis; type: ADME, Microsome; conditions: dose 10 µg/ml
[7] = Selectivity index, ratio of CC50 for cytotoxicity against human HepG2 cells to IC50 for antileishmanial activity against Leishmania donovani MHOM/IN/80/Dd8 amastigotes harboring luciferase gene infected in mouse J774 cells; type: toxicity, cell-based; conditions: read-out: Ratio CC50/IC50
[8] = Selectivity index, ratio of CC50 for cytotoxicity against mouse macrophage J774 cells to IC50 for antileishmanial activity against Leishmania donovani MHOM/IN/80/Dd8 amastigotes harboring luciferase gene infected in mouse J774 cells; type: toxicity, cell-based; conditions: read-out: Ratio CC50/IC50
[9] = Cytotoxicity against mouse macrophage J774 cells assessed as inhibition of cell viability incubated for 72 hrs by MTT assay; type: toxicity, cell-based
Leishmania donovani [10] = assay: Antileishmanial activity against Leishmania donovani MHOM/IN/80/Dd8 promastigotes infected in Balb/c mouse assessed as inhibition organ parasite burden in liver at 50 mg/kg, ip for 7 days by Giemsa staining based microscopy; type: functional; conditions: MHOM/IN/80/Dd8, 168 h, time 7 day
[11] = Octanol/water partition coefficient, logP of the compound incubated for 24 hrs by shake flask method; type: physicochemical
Leishmania donovani [12] = assay: Induction of apoptosis in Leishmania donovani MHOM/IN/80/Dd8 promastigotes assessed as ladder like DNA at 50 uM incubated for 72 hrs by agarose gel electrophoresis; type: functional, organism-based
[13] = Stability of compound in SIF assessed as parent compound remaining at 10 ug/ml incubated for 2 hrs by UPLC analysis; type: ADME; conditions: at 10 µg/mL, read-out: Stability
[14] = Stability of compound in mouse plasma assessed as parent compound remaining at 10 ug/ml incubated for 2 hrs by UPLC analysis; type: ADME, cell-free; conditions: at 10 µg/mL, read-out: Stability
[15] = Metabolic stability in mouse liver microsomes assessed as parent compound remaining at 10 ug/ml incubated for 1 hrs in presence of NADPH by UPLC analysis; type: ADME, Microsome; conditions: at 10 µg/mL, read-out: Stability
Leishmania donovani [16] = assay: Antileishmanial activity against Leishmania donovani MHOM/IN/80/Dd8 amastigotes harboring luciferase gene infected in mouse J774 cells assessed as inhibition of parasite viability incubated for 72 hrs by Steady-Glo reagent based luciferase assay relative to control; type: functional, organism-based; conditions: MHOM/IN/80/Dd8, J774, 72 h
[17] = Metabolic stability in mouse liver microsomes assessed as intrinsic clearance at 10 ug/ml measured per mg protein incubated for 1 hrs in presence of NADPH by UPLC analysis; type: ADME, Microsome; conditions: dose 10 µg/ml, read-out: CLH
Leishmania donovani [18] = assay: Antileishmanial activity against Leishmania donovani MHOM/IN/80/Dd8 promastigotes infected in Balb/c mouse assessed as inhibition organ parasite burden in spleen at 50 mg/kg, ip for 7 days by Giemsa staining based microscopy; type: functional; conditions: MHOM/IN/80/Dd8, 168 h, time 7 day
Leishmania donovani [19] = assay: Antileishmanial activity against Leishmania donovani MHOM/IN/80/Dd8 promastigotes harboring luciferase gene infected in mouse J774 cells assessed as inhibition of parasite viability at 50 uM incubated for 72 hrs by Steady-Glo reagent based luciferase assay relative to control; type: functional; conditions: MHOM/IN/80/Dd8, J774
Leishmania donovani [20] = assay: Induction of apoptosis in Leishmania donovani MHOM/IN/80/Dd8 promastigotes assessed as increase in cytochrome c level in cytosol at 50 uM incubated upto 48 hrs by immunoblot analysis; type: functional, organism-based; conditions: TDE = time-dependent effect
J774 [21] = assay: Cytotoxicity against mouse macrophage J774 cells assessed as reduction in cell viability at 50 to 100 uM incubated for 72 hrs by MTT assay; type: toxicity, cell-based; conditions: j774, 72 h, dose 50-100 µM
[22] = Stability of compound in SGF assessed as parent compound remaining at 10 ug/ml incubated for 2 hrs by UPLC analysis; type: ADME; conditions: at 10 µg/mL, read-out: Stability
[23] = Aqueous solubility of the compound incubated for 24 hrs by shake flask method; type: physicochemical; conditions: water
[24] = Cytotoxicity against human HepG2 cells assessed as inhibition of cell viability incubated for 72 hrs by MTT assay; type: toxicity, cell-based
J774 [25] = assay: Cytotoxicity against mouse macrophage J774 cells assessed as reduction in cell viability at 6.25 to 25 uM incubated for 72 hrs by MTT assay; type: toxicity, cell-based; conditions: j774, 72 h, dose 6.25-25 µM
Leishmania donovani [26] = assay: Antileishmanial activity against Leishmania donovani MHOM/IN/80/Dd8 promastigotes infected in Balb/c mouse assessed as inhibition organ parasite burden in liver at 6.25 mg/kg, ip for 7 days by Giemsa staining based microscopy; type: functional; conditions: MHOM/IN/80/Dd8, 168 h, time 7 day
Leishmania donovani [27] = assay: Induction of cell cycle arrest in Leishmania donovani MHOM/IN/80/Dd8 promastigotes assessed as increase in subG0/G1 phase at 50 uM incubated for 72 hrs by PI staining based flow cytometry; type: functional
Leishmania donovani [28] = assay: Antileishmanial activity against Leishmania donovani MHOM/IN/80/Dd8 promastigotes harboring luciferase gene infected in mouse J774 cells assessed as inhibition of parasite viability incubated for 72 hrs by Steady-Glo reagent based luciferase assay relative to control; type: functional, organism-based; conditions: MHOM/IN/80/Dd8, J774, 72 h
Leishmania donovani [29] = assay: Induction of mitochondrial membrane potential loss in Leishmania donovani MHOM/IN/80/Dd8 promastigotes assessed as apoptotic cells at 50 uM incubated for 24 hrs by JC-1 dye staining based flow cytometry; type: functional
Leishmania donovani [30] = assay: Antileishmanial activity against Leishmania donovani MHOM/IN/80/Dd8 promastigotes infected in Balb/c mouse assessed as inhibition organ parasite burden in spleen at 6.25 mg/kg, ip for 7 days by Giemsa staining based microscopy; type: functional; conditions: MHOM/IN/80/Dd8, 168 h, time 7 day
Leishmania donovani [31] = assay: Antileishmanial activity against Leishmania donovani MHOM/IN/80/Dd8 promastigotes infected in Balb/c mouse assessed as inhibition organ parasite burden in liver at 12.5 mg/kg, ip for 7 days by Giemsa staining based microscopy; type: functional; conditions: MHOM/IN/80/Dd8, 168 h, time 7 day
Leishmania donovani [32] = assay: Induction of apoptosis in Leishmania donovani MHOM/IN/80/Dd8 promastigotes assessed as decrease in cytochrome c level in mitochondria at 50 uM incubated upto 48 hrs by immunoblot analysis; type: functional, organism-based; conditions: TDE = time-dependent effect
Leishmania donovani [33] = assay: Induction of apoptosis in Leishmania donovani MHOM/IN/80/Dd8 promastigotes assessed as breakdown of nuclear DNA at 50 uM incubated for 72 hrs by agarose gel electrophoresis; type: functional, organism-based

For COc1ccc(-c2c3c(nc4ccc(OC)cc24)CN(C(C)(C)C(=O)NC(C)(C)C)C3=O)cc1, the Activity (Leishmania donovani [1]) was 69.1%, the inhibition at 25 µM (Leishmania donovani [2]) was 85.5% and the inhibition at 25 µM (Leishmania donovani [3]) was 85.4%. For the same molecule, the half-life at 10 ug/ml [4] was 304 min, the inhibition in vivo at 12.5 mg/kg (Leishmania donovani [5]) was 61.1% and the k el at 1 h, 10 ug/ml [6] was 3.89e-05 s⁻¹. The selectivity ratio [7] was 7.62, the selectivity ratio [8] was 7.79 and the CC50 at 72 h [9] was 65.1 µM. The inhibition in vivo at 50 mg/kg (Leishmania donovani [10]) was 57.8%, the logP at 24 h [11] was 2.7 and the Activity (Leishmania donovani [12]) was “Active”. The remaining at 2 h, 10 ug/ml [13] was 85.5%, the remaining at 2 h, 10 ug/ml [14] was 88.7% and the remaining at 1 h, 10 ug/ml [15] was 86.8%. It also gave an IC50 (Leishmania donovani [16]) of 7.36 µM, a microsomal CLint at 10 ug/ml [17] of 4.61 µL/min/mg and an inhibition in vivo at 50 mg/kg (Leishmania donovani [18]) of 63.4%. The inhibition at 50 µM (Leishmania donovani [19]) was 86.5%, the Activity (Leishmania donovani [20]) was “Tde” and the Activity (J774 [21]) was “>= 30%”. For the same molecule, the remaining at 2 h, 10 ug/ml [22] was 87.5%, the solubility thermodynamic at 24 h [23] was 157 µg/mL (≈ 340 µM) and the CC50 at 72 h [24] was 63.7 µM. For the same molecule, the Activity (J774 [25]) was “Non-Toxic”, the inhibition in vivo at 6.25 mg/kg (Leishmania donovani [26]) was 45.1% and the Activity (Leishmania donovani [27]) was 58.4%. For the same molecule, the IC50 (Leishmania donovani [28]) was 8.36 µM, the Activity (Leishmania donovani [29]) was 36% and the inhibition in vivo at 6.25 mg/kg (Leishmania donovani [30]) was 42.4%. For the same molecule, the inhibition in vivo at 12.5 mg/kg (Leishmania donovani [31]) was 56.2%, the Activity (Leishmania donovani [32]) was “Tde” and the Activity (Leishmania donovani [33]) was “Active”.
